Measured values published in patent US20140011822A1, “METHODS AND MATERIALS FOR REDUCING VENOUS STENOSIS FORMATION OF AN ARTERIOVENOUS FISTULA OR GRAFT” (priority 2011, published 2014).

Columns and labels:
MMP-9 = assay: RT-PCR for MMP-9 in kidneys, simvastatin; assay type: in vivo, mice
Method: (§1) Animals were housed at 22° C. temperature, 41% relative humidity, and 12-/12-hour light/dark cycles. Animals were allowed access to water and food ad libitum. […] Sixty-eight male C57BL/6 mice (Jackson Laboratories, Bar Harbor, Me.) weighing 25-30 grams were used for the present study (FIG. 18). Chronic kidney disease was created by surgical removal of the right kidney accompanied by ligation of the arterial blood supply to the upper pole of the left kidney as described elsewhere (Misra et al., J. Vasc. Interv. Radiol., 21:1255-1261 (2010); see, also, FIG. 18A). Three weeks after nephrectomy, the animals were started on simvastatin (40 mg/kg administered i.p. three times per week) or PBS (equal amount of volume used for simvastatin i.p. controls). Simvastatin was prepared as described elsewhere (Wilson et al., Arterioscler Thromb. Vasc. Biol., 21:122-128 (2001)). A week later, an AVF was created by connecting the right carotid artery to the ipsilateral jugular vein (FIG. 18B; see, also, Misra et al., J. Vasc. Interv. Radiol., 21:1255-1261 (2010) and Yang et al., J. Vasc. Interv. Radiol., 20:946-950 (2009)). Animals were sacrificed at day 7, day 14, and day 28 following AVF placement for real time polymerase chain reaction (RT-PCR) and histomorphometric analyses (FIG. 18C). Serum BUN and creatinine were measured by removing blood from the tail vein at baseline (before nephrectomy), at AVF creation, and at the time of sacrifice. […] These animals were started on simvastatin (40 mg/kg i.p.) or PBS (equal amount of volume i.p.) every other day one week before AVF placement and then sacrificed four weeks after fistula placement for histomorphometric analysis.
(§2) The tissue was stored in RNA stabilizing reagent (Qiagen, Gaithersburg, Md.) as per the manufacturer's guidelines. To isolate the RNA, the specimens were homogenized, and total RNA was isolated using RNeasy mini kit (Qiagen) (Misra et al., J. Vasc. Interv. Radiol., 21:1255-1261 (2010); and Yang et al., J. Vasc. Interv. Radiol., 20:946-950 (2009)).
(§3) Expression for the gene of interest was determined using RT-PCR analysis as described elsewhere (Misra et al., J. Vasc. Interv. Radiol., 21:1255-1261 (2010)). Commercial PCR primers for the gene of interest were purchased from SA Biosciences (Frederick, Md.).

VEGF-A [1] = assay: RT-PCR for VEGF-A at outflow vein, simvastatin; assay type: in vivo, mice
Method: as §1, §2, §3

[2] = system: apoptosis at the outflow vein; assay: TUNEL staining of outflow vein, simvastatin; assay type: in vivo, mice; settings: for average increase of TUNEL staining: vs control
Method: TUNEL staining was performed on paraffin-embedded sections from the outflow vein after treatment with either simvastatin or controls as specified by the manufacturer (DeadEnd Colorimetric tunnel assay system, G7360, Promega, Madison, Wis.).
(§4) Morphometric analysis was performed as described elsewhere (Misra et al., Kidney Int., 68:2890-2900 (2005); and Misra et al., Am. J. Physiol. Heart Circ. Physiol., 294:H2219-2230 (2008)). Briefly, the outflow vein was sectioned into multiple contiguous 4-μm paraffin embedded sections. Typically, 2 to 3 sections per animal for each group (simvastatin and controls) and time point (day 14 and day 28) were photographed and then quantified using KS 400 (Carl Zeiss, Inc., Thornwood, N.Y.) semiquantitative program.

α-SMA [3] = assay: α-SMA staining of outflow vein, simvastatin; assay type: in vivo, mice; settings: for average reduction of α-SMA density: vs control
Method: Multiple serial four-micrometer sections were stained and analyzed. Cellular proliferation was determined by staining for Ki-67 on sections removed from the outflow vein for simvastatin treated vessels or control groups. Smooth muscle density (α-SMA) or proliferation index (Ki-67) was determined by staining on sections removed from the outflow vein by performing quantification at the different time points. Immunohistochemistry for Ki-67 and α-SMA was performed on paraffin-embedded sections from the outflow vein after transfection with either simvastatin or controls using the Vectastain Elite ABC system (Vector Laboratories, Burlingame, Calif., USA). The following antibodies were used: mouse monoclonal antibody Ki-67 (DAKO, Carpentaria, Calif.; 1:400) or rabbit polyclonal antibody to mouse for α-SMA (Abcam, Cambridge, Mass.; 1:400).
as §4

caspase 3 = assay: Caspase 3 activity in NIH 3T3 cells, simvastatin; assay type: cell-based; settings: 24 hours hypoxia
Method: (§5) One hundred thousand NIH 3T3 cells were treated with simvastatin (1 μM, 5 μM, or 10 μM) or controls and made hypoxic for 24 hours as described elsewhere (Misra et al., J. Vasc. Interv. Radiol., 21:896-902 (2010)).
Apoptosis was assessed using an ELISA assay for caspase 3. Cellular protein was extracted from one hundred thousand cultured cells as described elsewhere (Misra et al., J. Vasc. Interv. Radiol., 21:896-902 (2010)). The enzymatic activity of caspase 3 was accessed by Caspase Glo assay (G811C, Promega, Madison, Wis.).

MMP-2 = assay: RT-PCR for MMP-2 in kidneys, simvastatin; assay type: in vivo, mice
Method: (§6) Animals were housed at 22° C. temperature, 41% relative humidity, and 12-/12-hour light/dark cycles. Animals were allowed access to water and food ad libitum. […] Sixty-eight male C57BL/6 mice (Jackson Laboratories, Bar Harbor, Me.) weighing 25-30 grams were used for the present study (FIG. 18). Chronic kidney disease was created by surgical removal of the right kidney accompanied by ligation of the arterial blood supply to the upper pole of the left kidney as described elsewhere (Misra et al., J. Vasc. Interv. Radiol., 21:1255-1261 (2010); see, also, FIG. 18A). Three weeks after nephrectomy, the animals were started on simvastatin (40 mg/kg administered i.p. three times per week) or PBS (equal amount of volume used for simvastatin i.p. controls). Simvastatin was prepared as described elsewhere (Wilson et al., Arterioscler Thromb. Vasc. Biol., 21:122-128 (2001)). […] Serum BUN and creatinine were measured by removing blood from the tail vein at baseline (before nephrectomy), at AVF creation, and at the time of sacrifice. […]
(§7) Expression for the gene of interest was determined using RT-PCR analysis as described elsewhere (Misra et al., J. Vasc. Interv. Radiol., 21:1255-1261 (2010)). […]

VEGF-A [4] = assay: RT-PCR for VEGF-A in kidneys, simvastatin; assay type: in vivo, mice
Method: as §6, §7

α-SMA [5] = assay: Western blot of α-SMA in NIH 3T3 cells, simvastatin; assay type: cell-based; settings: 10 μM, 24 hours of hypoxia, vs control
Method: as §5
The differentiation of fibroblasts to myofibroblasts was assessed by performing Western blot analysis for α-SMA. The cultured cells were processed for Western analysis using rabbit polyclonal antibody as described elsewhere (Misra et al., J. Vasc. Interv. Radiol., 19:252-259 (2008)).

[6] = system: outflow vein of arteriovenous fistula; assay: Histomorphometry of outflow vein (neointima, media/adventitia, lumen area, cell density), simvastatin; assay type: in vivo, mice
Method: as §1
At euthanasia, all mice were anesthetized, and the arterio-venous fistula was carefully dissected from of the surrounding tissue. Animals were euthanized by use of CO2 asphyxiation, and the outflow veins harvested for RT-PCR or histomorphometric analyses as described elsewhere (Misra et al., Kidney Int., 68:2890-2900 (2005); Misra et al., J. Vasc. Interv. Radiol., 21:1255-1261 (2010); and Misra et al., Am. J. Physiol. Heart Circ. Physiol., 294:H2219-2230 (2008)).
as §4

CCC(C)(C)C(=O)O[C@H]1C[C@@H](C)C=C2C=C[C@H](C)[C@H](CC[C@@H]3C[C@@H](O)CC(=O)O3)[C@H]21 [simvastatin]
average gene expression of MMP-9 (MMP-9; day 7): 0.42±0.13 | Average reduction of MMP-9 gene expression (MMP-9; day 7, vs control): 57% | average gene expression of MMP-9 (MMP-9; day 28): 0.64±0.09 | Average reduction of MMP-9 gene expression (MMP-9; day 28, vs control): 44% | mean gene expression of VEGF-A (VEGF-A [1]; day 7): 0.58±0.06 | Average reduction of VEGF-A gene expression (VEGF-A [1]; day 7, vs control): 44% | mean gene expression of VEGF-A (VEGF-A [1]; day 14): 0.51±0.1 | Average reduction of VEGF-A gene expression (VEGF-A [1]; day 14, vs control): 49% | average density of cells staining positive for TUNEL ([2]; day 14): 25.26±2.78 | average increase of TUNEL staining ([2]; day 14): 366% | average density of cells staining positive for TUNEL ([2]; day 28): 30.17±1.8 | average increase of TUNEL staining ([2]; day 28): 561% | increase of TUNEL staining ([2]; day 28 normal, vs control (P=0.0136)): 326% | average α-SMA density (α-SMA [3]; day 14): 24±1.2 | average reduction of α-SMA density (α-SMA [3]; day 14): 46% | average α-SMA density (α-SMA [3]; day 28): 8.4±1.6 | average reduction of α-SMA density (α-SMA [3]; day 28): 87% | average α-SMA density (α-SMA [3]; day 28 normal): 28.4±1.6 | average reduction of α-SMA density (α-SMA [3]; day 28 normal): 32% | average increase in caspase 3 activity (caspase 3; 5 μM): 281% | average increase in caspase 3 activity (caspase 3; 10 μM): 1103% | expression of MMP-2 (MMP-2; day 28): 0.78±0.09 | Average reduction of MMP-2 expression (MMP-2; day 28, vs control): 42% | average gene expression of VEGF-A (VEGF-A [4]; day 28): 1±0.02 | Average reduction of VEGF-A gene expression (VEGF-A [4]; day 28, vs control): 24% | Average reduction in α-SMA production (Western blot) (α-SMA [5]): 56% | average area of the media/adventitia ([6]; day 14): 147603±4443 μm^2 | average area of the neointima ([6]; day 14): 61864±12401 μm^2 | average cell density of the media/adventitia ([6]; day 14): 3.27±0.33 | average cell density of the neointima ([6]; day 14): 4.6±0.2 | average lumen vessel area ([6]; day 14): 95051±21583 | Average reduction of media/adventitia area ([6]; day 14, vs control): 43% | average increase of lumen vessel area ([6]; day 14, vs control): 150% | average reduction of media/adventitia cell density ([6]; day 14, vs control): 37% | average reduction of neointima area ([6]; day 14, vs control): 56% | average reduction of neointima cell density ([6]; day 14, vs control): 65% | average area of the neointima ([6]; day 28): 85574±1652 | average cell density of the media/adventitia ([6]; day 28): 2.85±0.10 | average cell density of the neointima ([6]; day 28): 4.2±0.2 | average lumen vessel area ([6]; day 28): 162607±34685
